Experimental data published in patent US11247976B2, “Synthetic ligands that modulate the activity of the RhlR quorum sensing receptor” (Wisconsin Alumni Research Foundation, priority 2016, dated 2022).
Entries after “also recorded” stand apart in the source; their conditions may differ. Marks after values point to notes of the source that are not given here.

molecular target: T1, RhlR (Pseudomonas aeruginosa, UniProt P54292); assay: E. coli RhlR reporter agonism assay (JLD271/pJN105R2/pSC11-rhlI*); format: cell-based, P. aeruginosa; details: not given
T1 construct: expressed in transfected cells; host or cells: E. coli JLD271 (ΔsdiA) with pJN105R2 (arabinose-induced) and pSC11-rhlI*
Protocol: (§1) All media and reagents for bacterial culture were purchased from commercial sources. Bacteria were cultured in Luria-Bertani broth (LB) at 37° C. with shaking at 200 rpm unless otherwise noted. The bacterial reporter strains used for this study were (i) the heterologous E. coli strain JLD271 (ΔsdiA) harboring the RhlR expression plasmid pJN105R2 and the rhlI-lacZ transcriptional fusion reporter pSC11-rhlI*, (ii) the heterologous E. coli strain JLD271 (ΔsdiA) harboring the LasR expression plasmid pJN105L and the […] transcriptional fusion reporter pSC11, and (iii) the P. aeruginosa strain PAO-JP2 (ΔlasrhlI) harboring the rhlI-gfp transcriptional fusion reporter prhlI-LVAgfp. Reporter strains JLD271/pJN105R2/pSC11-rhlI* and JLD271/pJN105L/pSC11 were grown in LB containing 100 μg/mL ampicillin and 10 μg/mL gentamicin. Freezer stocks of bacterial strains were maintained at −80° C. in 1:1 LB:50% glycerol.
(§2) To evaluate the modulatory activities of library compounds on RhlR and LasR using E. coli reporters, the strains JLD271/pJN105R2/pSC11-rhlI* and JLD271/pJN105L/pSC11 were used, respectively, as previously described.^38, 51 The following modifications were used in the RhlR agonism reporter assay, non-native compounds (10 μM or 1 mM) were compared to 1 mM BHL as the positive control. Briefly, a subculture was prepared by diluting an overnight culture 1:10 with fresh media containing 100 μg/mL ampicillin and 10 μg/mL gentamicin, and was incubated until it had grown to OD600=0.45. In all assays, L-arabinose was added to a final concentration of 4 mg/mL to induce RhlR expression. For RhlR agonism assays, activities of test compounds were measured relative to 1 mM BHL (the concentration required to induce a maximal level of RhlR activity). For RhlR antagonism assays, test compounds were competed against a concentration of BHL approximately equal to its EC50 value (10 μM). Activity was measured relative to 10 μM BHL. Inhibition was calculated by subtracting 100% from the relative activity value. Thus, 0% inhibition mimics represents no competitive displacement of 10 μM BHL by a test compound. In all assays, modifications were made to the standard Miller assay protocol to accommodate the use of the chlorophenol red-β-D-galactopyranoside (CPRG) β-galactosidase substrate. After cell lysis, 150 μL of the aqueous layer was transferred from each well of a solvent-resistant 96-well microtiter plate to the wells of a new clear, flat-bottom 96-well microtiter plate. CPRG (4 mg/mL in phosphate-buffered saline) was added to each well in 25 μL volumes. Plates were incubated at 30° C. until the positive control wells developed a red color (approximately 30 min). The amount of processed CPRG substrate was assessed by measuring the absorbance of each well at 570 nm. Enzymatic activity was calculated using the following equation: adjusted Miller units=1000·Abs570/(OD600·t·V),
(§3) where t is the incubation time of substrate with lysate and V is the volume of culture lysed.
Because LuxR-type receptors are often unstable in solution, preventing the use of in vitro assays to directly assess small molecule agonism and antagonism, reporter gene assays represent a standard method for screening small-molecule libraries for LuxR-type receptor modulation. Previously reported strains for this purpose were used in the current study.^38 Synthetic N-butanoyl L-homoserine lactone (BHL), the native ligand of RhlR, was used as the positive control for receptor activation. Commonly, agonists are measured relative to maximum possible receptor activation within a particular assay medium;^40 because the dose-response curve of BHL is distinctly shallow in these RhlR reporters, a high concentration of BHL is required to maximally activate RhlR. In this study, activation of compounds was measured relative to that elicited by 1 mM BHL (the concentration of BHL used causes no aberrant growth effects in the reporter strain). […]

T1 sequence (P54292 whole entry): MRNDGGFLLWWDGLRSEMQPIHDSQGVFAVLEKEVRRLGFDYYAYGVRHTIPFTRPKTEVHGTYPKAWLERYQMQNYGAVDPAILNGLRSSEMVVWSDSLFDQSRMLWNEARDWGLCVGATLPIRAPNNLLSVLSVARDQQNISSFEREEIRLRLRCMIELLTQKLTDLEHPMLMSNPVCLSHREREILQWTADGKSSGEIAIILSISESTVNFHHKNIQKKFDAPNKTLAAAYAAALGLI

SMILES	EC50
CCCC(=O)N[C@H]1CCOC1=O [BHL, N-butanoyl L-homoserine lactone, reference compound]	8950 nM
CC(C)CC(=O)N[C@H]1CCOC1=O [Compound J18, isovaleryl HL]	1020 nM
O=C(N[C@H]1CCOC1=O)C1CCC1 [Compound J24, cyclobutanoyl AHL]	1780 nM
CCCC(=O)N[C@H]1CCSC1=O [RN8]	4870 nM
O=C(N[C@H]1CCSC1=O)C1CCC1 [RN15]	1720 nM

same assay, conditions: E. coli reporter

SMILES	Hill slope of agonism dose-response
CCCC(=O)N[C@H]1CCOC1=O [BHL, N-butanoyl L-homoserine lactone, reference compound]	0.7

same assay, conditions: E. coli reporter, EC50 vs BHL

SMILES	fold more potent than the native ligand
CC(C)CC(=O)N[C@H]1CCOC1=O [Compound J18, isovaleryl HL]	~10 fold

same assay, conditions: compound at 10 μM; RhlR activity relative to 1 mM BHL; E. coli reporter

SMILES	activation at 10 µM
CCCC(=O)N[C@H]1CCOC1=O [BHL, N-butanoyl L-homoserine lactone, reference compound]	51%
CC(C)CC(=O)N[C@H]1CCOC1=O [Compound J18, isovaleryl HL]	86%
O=C(N[C@H]1CCOC1=O)C1CCC1 [Compound J24, cyclobutanoyl AHL]	79%
CCCC(=O)N[C@H]1CCSC1=O [RN8]	71%
O=C(COc1ccc(I)cc1)NC1CCCC1 [RN17]	1%
O=C(COc1ccc(I)cc1)NCC1CCCO1 (centres unmarked) [RN23]	0%
CC(C)CC(=O)NC1CCCC1 [RN39]	0%

same assay, conditions: dose-response, E. coli reporter

SMILES	RhlR agonist potency in words
CC(C)CC(=O)N[C@H]1CCOC1=O [Compound J18, isovaleryl HL]	significantly more potent than BHL
O=C(N[C@H]1CCOC1=O)C1CCC1 [Compound J24, cyclobutanoyl AHL]	significantly more potent than BHL; also recorded: rivaled in potency that of S4
O=C(N[C@H]1CCSC1=O)C1CCC1 [RN15]	equipotent to the cyclobutanoic tail group parent, compound J24

same assay, conditions: read-out: Maximum Activation (%)

SMILES	Emax
CCCC(=O)N[C@H]1CCOC1=O [BHL, N-butanoyl L-homoserine lactone, reference compound]	100%
CC(C)CC(=O)N[C@H]1CCOC1=O [Compound J18, isovaleryl HL]	105%
O=C(N[C@H]1CCOC1=O)C1CCC1 [Compound J24, cyclobutanoyl AHL]	100%
CCCC(=O)N[C@H]1CCSC1=O [RN8]	102%
O=C(N[C@H]1CCSC1=O)C1CCC1 [RN15]	106%

same assay, conditions: single-concentration screen at 10 μM, E. coli reporter

SMILES	RhlR agonist activity in words
CC(C)CC(=O)N[C@H]1CCOC1=O [Compound J18, isovaleryl HL]	comparable RhlR activation to that of BHL
O=C(N[C@H]1CCOC1=O)C1CCC1 [Compound J24, cyclobutanoyl AHL]	strong

molecular target: T1, RhlR; assay: E. coli RhlR reporter antagonism assay vs 10 μM BHL (JLD271/pJN105R2/pSC11-rhlI*); format: cell-based, P. aeruginosa; details: not given
Protocol: as §1
as §2, with “For RhlR antagonism assays, test compounds were competed against a concentration of BHL approximately equal to its EC50 value (10 μM).” left out
as §3
The RhlR-modulatory activity of the J library compounds was assessed in a heterologous reporter strain (E. coli JLD271 harboring plasmids pJN105R2 and pSC11-rhlI*) in order to isolate the RhlR receptor from upstream QS regulation (e.g. regulation by LasR). Thus, the extent to which compounds were directly modulating RhlR could be determined. These assays were performed by incubating compound-treated, mid-log phase E. coli reporter cells in 96-well microtiter plates, followed by Miller assay evaluation of ß-galactosidase activity.
RhlR agonism and antagonism screens of each compound were performed initially at 10 μM.

SMILES	IC50
O=C(COc1ccc(I)cc1)NCC1CCCO1 (centres unmarked) [RN23]	> 100000 nM

same assay, conditions: E. coli reporter vs 10 μM BHL

SMILES	RhlR antagonist activity in words
O=C(COc1ccc(I)cc1)NCC1CCCO1 (centres unmarked) [RN23]	potent antagonist activity; also recorded: negligible maximum potency difference from its head group parent compound RN10

same assay, conditions: E. coli reporter; relative to activation of 10 μM BHL alone

SMILES	Maximum Inhibition (%)
O=C(COc1ccc(I)cc1)NC1CCCC1 [RN17]	31%
O=C(COc1ccc(I)cc1)NCC1CCCO1 (centres unmarked) [RN23]	56%

same assay, conditions: read-out: % inhibition (10 μM), compound at 10 μM in the presence of 10 μM BHL; negative = agonism stronger than 10 μM BHL alone

SMILES	inhibition at 10 µM
CC(C)CC(=O)N[C@H]1CCOC1=O [Compound J18, isovaleryl HL]	-62%
O=C(N[C@H]1CCOC1=O)C1CCC1 [Compound J24, cyclobutanoyl AHL]	-66%
CCCC(=O)N[C@H]1CCSC1=O [RN8]	-8%
O=C(N[C@H]1CCSC1=O)C1CCC1 [RN15]	-85%
O=C(COc1ccc(I)cc1)NC1CCCC1 [RN17]	6%
O=C(COc1ccc(I)cc1)NCC1CCCO1 (centres unmarked) [RN23]	6%
CC(C)CC(=O)NC1CCCC1 [RN39]	11%

same assay, conditions: read-out: % inhibition (1 mM), compound at 1 mM in the presence of 10 μM BHL; negative = agonism stronger than 10 μM BHL alone

SMILES	inhibition at 1000 µM
CC(C)CC(=O)N[C@H]1CCOC1=O [Compound J18, isovaleryl HL]	-123%
O=C(N[C@H]1CCOC1=O)C1CCC1 [Compound J24, cyclobutanoyl AHL]	-110%
CCCC(=O)N[C@H]1CCSC1=O [RN8]	-75%
O=C(N[C@H]1CCSC1=O)C1CCC1 [RN15]	-114%
O=C(COc1ccc(I)cc1)NCC1CCCO1 (centres unmarked) [RN23]	> 50%
CC(C)CC(=O)NC1CCCC1 [RN39]	31%

same assay, conditions: read-out: % inhibition (1 mM), screened at a maximal concentration of 100 microM (solubility), in the presence of 10 μM BHL

SMILES	inhibition at 1000 µM
O=C(COc1ccc(I)cc1)NC1CCCC1 [RN17]	24%

molecular target: T1, RhlR; assay: P. aeruginosa RhlR reporter agonism assay (PAO-JP2/prhlI-LVAgfp); format: cell-based; details: not given

SMILES	EC50
CCCC(=O)N[C@H]1CCOC1=O [BHL, N-butanoyl L-homoserine lactone, reference compound]	8080 nM
CC(C)CC(=O)N[C@H]1CCOC1=O [Compound J18, isovaleryl HL]	1420 nM
O=C(N[C@H]1CCOC1=O)C1CCC1 [Compound J24, cyclobutanoyl AHL]	1410 nM
CCCC(=O)N[C@H]1CCSC1=O [RN8]	14300 nM
O=C(N[C@H]1CCSC1=O)C1CCC1 [RN15]	1650 nM

same assay, conditions: read-out: Maximum Activation (%)

SMILES	Emax
CCCC(=O)N[C@H]1CCOC1=O [BHL, N-butanoyl L-homoserine lactone, reference compound]	100%
CC(C)CC(=O)N[C@H]1CCOC1=O [Compound J18, isovaleryl HL]	94%
O=C(N[C@H]1CCOC1=O)C1CCC1 [Compound J24, cyclobutanoyl AHL]	95%
CCCC(=O)N[C@H]1CCSC1=O [RN8]	94%
O=C(N[C@H]1CCSC1=O)C1CCC1 [RN15]	90%

molecular target: T2, LasR (Pseudomonas aeruginosa, UniProt P25084); assay: Selectivity of RhlR agonism over LasR agonism (E. coli LasR reporter JLD271/pJN105L/pSC11); format: cell-based, P. aeruginosa; details: tested concentration 1 mM; RhlR % activity divided by LasR % activity; > = negligible activity in LasR reporter
T2 construct: expressed in transfected cells; host or cells: E. coli JLD271 (ΔsdiA) with pJN105L and pSC11
Protocol: as §1, §2
LasR assays were processed using the protocol for the substrate ortho-nitrophenyl-β-galactoside (ONPG) as previously described elsewhere.^53; and LasR antagonism assays were performed versus the EC50 for OdDHL (2 nM).
The selectivity of certain compounds for RhlR over LasR was measured using a LasR reporter strain (details above). Table 6 provides a comparison of selectivity of RhlR agonism over LasR agonism for exemplary compounds. Table 7 provides a comparison of selectivity of RhlR antagonism over LasR antagonism for exemplary compounds.

T2 sequence (P25084 whole entry): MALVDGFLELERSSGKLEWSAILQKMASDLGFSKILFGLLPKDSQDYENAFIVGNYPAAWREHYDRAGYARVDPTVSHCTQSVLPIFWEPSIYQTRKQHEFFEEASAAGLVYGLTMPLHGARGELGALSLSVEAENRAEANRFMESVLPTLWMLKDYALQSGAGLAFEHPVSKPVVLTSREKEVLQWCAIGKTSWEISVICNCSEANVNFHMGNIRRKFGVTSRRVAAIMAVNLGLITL

SMILES	Fold selectivity of RhlR agonists over LasR agonism
CCCC(=O)N[C@H]1CCOC1=O [BHL, N-butanoyl L-homoserine lactone, reference compound]	18 fold
CC(C)CC(=O)N[C@H]1CCOC1=O [Compound J18, isovaleryl HL]	>99^b fold
O=C(N[C@H]1CCOC1=O)C1CCC1 [Compound J24, cyclobutanoyl AHL]	48 fold
CCCC(=O)N[C@H]1CCSC1=O [RN8]	4.5 fold
O=C(N[C@H]1CCSC1=O)C1CCC1 [RN15]	11 fold

same assay, conditions: tested concentration 10 μm; RhlR % activity divided by LasR % activity; > = negligible activity in LasR reporter

SMILES	Fold selectivity of RhlR agonists over LasR agonism
CCCC(=O)N[C@H]1CCOC1=O [BHL, N-butanoyl L-homoserine lactone, reference compound]	56 fold
CC(C)CC(=O)N[C@H]1CCOC1=O [Compound J18, isovaleryl HL]	255^ fold
O=C(N[C@H]1CCOC1=O)C1CCC1 [Compound J24, cyclobutanoyl AHL]	>79^b fold
CCCC(=O)N[C@H]1CCSC1=O [RN8]	17 fold
O=C(N[C@H]1CCSC1=O)C1CCC1 [RN15]	>88^b fold
